What was measured:
[1] = test system: E. coli ATCC 25922 (SEN) and E. coli NCTC13846 (MDR); test: microbe, parasite or virus in culture; type: cell-based, Escherichia coli; settings: for MIC: across three biological replicates
Outline: (§1)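 Broth microdilution in cation-adjusted Mueller-Hinton Broth 2 (except SCH79797), 11–16-step serial dilutions, 5 × 10^5 cells/mL, 37 °C with shaking for 18 h, 2 replicates. MIC is the lowest concentration giving complete growth inhibition (OD600 < 0.05); relative MIC = MIC evolved/MIC ancestor.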

[2] = test system: A. baumannii ATCC 17978 (SEN) and A. baumannii ATCC BAA-1605 (MDR); test: microbe, parasite or virus in culture; type: cell-based, Acinetobacter baumannii; settings: for MIC: across three biological replicates
Outline: as §1

[3] = test system: E. coli ATCC 25922 (SEN) and E. coli NCTC13846 (MDR); test: Adaptive laboratory evolution (ALE), relative MIC of evolved lines; type: cell-based, Escherichia coli
Outline: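 Ten parallel populations per antibiotic–ancestor pair were evolved in MHB at 37 °C, starting near 50% growth-inhibiting drug. Every 72 h they were passaged into 0.5–2.5× increasing concentrations, keeping the highest-drug well with OD600 > 0.2.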

[4] = ancestor EC-SEN (Escherichia coli ATCC 25922)
[5] = EC-SEN (E. coli ATCC 25922), evolved line 1 of the given antibiotic
[6] = EC-SEN (E. coli ATCC 25922), evolved line 3 of the given antibiotic
[7] = EC-SEN (E. coli ATCC 25922), evolved line 7 of the given antibiotic
[8] = EC-SEN (E. coli ATCC 25922), evolved line 9 of the given antibiotic

Tridecaptin M152-P3
MIC of ancestor ([1]; Escherichia coli ATCC 25922 (EC-SEN), ancestor strain, sheet fig 2a): 4 µg/mL | MIC ([1]; Escherichia coli ATCC 25922 (EC-SEN)): 4 µg/mL | MIC ([1]; Escherichia coli NCTC 13846 (EC-MDR)): 8 µg/mL | MIC of ancestor [1, 4]: 4 µg/mL | MIC ([2]; Acinetobacter baumannii ATCC 17978 (AB-SEN)): 8 µg/mL | MIC ([2]; Acinetobacter baumannii ATCC BAA-1605 (AB-MDR)): 8 µg/mL | MIC of evolved line [3, 5]: 32 µg/mL | MIC of evolved line ([3]; EC-SEN (E. coli ATCC 25922), evolved line 2 of the given antibiotic): 64 µg/mL | MIC of evolved line [3, 6]: 32 µg/mL | MIC of evolved line ([3]; EC-SEN (E. coli ATCC 25922), evolved line 4 of the given antibiotic): 32 µg/mL | MIC of evolved line ([3]; EC-SEN (E. coli ATCC 25922), evolved line 6 of the given antibiotic): 32 µg/mL | MIC of evolved line [3, 7]: 32 µg/mL | MIC of evolved line ([3]; EC-SEN (E. coli ATCC 25922), evolved line 8 of the given antibiotic): 32 µg/mL | MIC of evolved line [3, 8]: 32 µg/mL | MIC of evolved line ([3]; EC-SEN (E. coli ATCC 25922), evolved line 10 of the given antibiotic): 64 µg/mL

polymyxin-B
MIC of ancestor ([1]; E. coli ATCC 25922 (EC-SEN), ancestor strain, sheet fig 2a): 1 µg/mL | MIC of ancestor ([1]; E. coli NCTC 13846 (EC-MDR), ancestor strain, sheet fig 2a): 4 µg/mL | MIC of ancestor ([1]; Escherichia coli NCTC 13846 (EC-MDR), ancestor): 4 µg/mL | MIC of ancestor [1, 4]: 1 µg/mL | MIC of ancestor ([2]; Acinetobacter baumannii ATCC 17978 (AB-SEN), ancestor strain, sheet fig 2a): 1 µg/mL | MIC of ancestor ([2]; Acinetobacter baumannii ATCC BAA 1605 (AB-MDR), ancestor): 1 µg/mL | MIC of ancestor ([2]; Acinetobacter baumannii ATCC BAA 1605 (AB-MDR), ancestor strain, sheet fig 2a): 1 µg/mL | MIC of ancestor ([2]; ancestor AB-SEN (Acinetobacter baumannii ATCC 17978)): 1 µg/mL | MIC of evolved line ([3]; EC-MDR NCTC 13846, evolved line 3): 64 µg/mL | MIC of evolved line ([3]; EC-MDR NCTC 13846, evolved line 5): 64 µg/mL | MIC of evolved line ([3]; EC-MDR NCTC 13846, evolved line 6): 64 µg/mL | MIC of evolved line ([3]; EC-MDR NCTC 13846, evolved line 8): 32 µg/mL | MIC of evolved line ([3]; EC-MDR NCTC 13846, evolved line 9): 64 µg/mL | MIC of evolved line ([3]; EC-MDR NCTC 13846, evolved line 10): 64 µg/mL | MIC of evolved line [3, 5]: 64 µg/mL | MIC of evolved line [3, 6]: 64 µg/mL | MIC of evolved line [3, 7]: 64 µg/mL | MIC of evolved line [3, 8]: 64 µg/mL

Source: paper PMC11845477, “Exploring the principles behind antibiotics with limited resistance” (Nature Communications, 2025)
